Experiments:
KIAA1363 [1] = target: T1, KIAA1363 (Homo sapiens, UniProt Q6PIU2); assay: Inhibition of FP-rhodamine labeling of KIAA1363 by JW551 (FIG. 17); type: biochemical; conditions: selective over other serine hydrolase enzymes
T1 sequence (Q6PIU2 1-408): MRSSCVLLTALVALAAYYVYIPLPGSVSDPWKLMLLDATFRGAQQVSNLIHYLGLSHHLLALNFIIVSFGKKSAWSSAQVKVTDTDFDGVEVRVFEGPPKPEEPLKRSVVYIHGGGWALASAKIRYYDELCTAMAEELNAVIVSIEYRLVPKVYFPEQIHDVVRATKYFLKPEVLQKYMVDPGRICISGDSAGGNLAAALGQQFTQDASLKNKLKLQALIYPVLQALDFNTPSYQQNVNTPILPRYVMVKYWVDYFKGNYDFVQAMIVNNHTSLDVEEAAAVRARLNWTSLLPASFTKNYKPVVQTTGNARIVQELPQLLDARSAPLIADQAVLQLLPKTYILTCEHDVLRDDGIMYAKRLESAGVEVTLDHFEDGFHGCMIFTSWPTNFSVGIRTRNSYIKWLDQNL

KIAA1363 [2] = target: T2, KIAA1363 (Mus musculus, UniProt Q8BLF1); assay: In vivo labeling of KIAA1363 by JW576 in mouse heart (gel-based ABPP)
T2 construct: ABPP analysis of KIAA1363 activity in mouse brain membrane proteome; from tissue; host or cells: mouse brain (membrane fraction)
T2 sequence (Q8BLF1 1-408): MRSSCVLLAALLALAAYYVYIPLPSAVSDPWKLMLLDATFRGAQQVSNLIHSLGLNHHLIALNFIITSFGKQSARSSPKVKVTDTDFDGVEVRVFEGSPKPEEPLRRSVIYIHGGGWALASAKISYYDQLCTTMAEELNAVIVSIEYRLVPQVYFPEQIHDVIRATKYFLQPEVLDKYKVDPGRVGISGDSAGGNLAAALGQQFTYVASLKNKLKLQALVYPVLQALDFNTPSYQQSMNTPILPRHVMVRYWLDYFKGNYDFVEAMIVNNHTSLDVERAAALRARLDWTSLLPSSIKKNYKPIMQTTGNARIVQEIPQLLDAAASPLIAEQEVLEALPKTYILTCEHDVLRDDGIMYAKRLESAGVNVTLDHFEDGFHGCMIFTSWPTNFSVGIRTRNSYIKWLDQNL
Procedure: (§1) For ABPP experiments, cell lysate and tissue proteomes were treated with 1 μM FP-rhodamine for 30 min at room temperature ([…]). Reactions were quenched with one volume of standard 4×SDS/PAGE loading buffer (reducing), separated by SDS/PAGE (10% acrylamide), and visualized in-gel with a Hitachi FMBio IIe flatbed fluorescence scanner (MiraiBio). For experiments involving a preincubation with JW576 in the presence or absence of the non-fluorescent competitor JW480, the reactions were prepared without FP-rhodamine. JW576 were added at the indicated concentration and incubated for the indicated time at 37° C. FP-rhodamine was then added and the reaction was carried out exactly as described above.
Tissues were dounce-homogenized in PBS, pH 7.5, followed by a low-speed spin (1,400 g, 5 min) to remove debris. The supernatant was then subjected to centrifugation (64,000 g, 45 min) to provide the cytosolic fraction in the supernatant and the membrane fraction as a pellet. The pellet was washed and resuspended in PBS buffer by sonication. Total protein concentration in each fraction was determined using a protein assay kit (Bio-Rad). Samples were stored at −80° C. until use.
JW576 was prepared as a homogenoeus PEG solution by vortexing, sonicating, and gently heating neat compound directly into PEG300 (Fluka) (4 mg ml^−1 final concentration. Male C57BI/6J (<6 months old, 20-28 g) and Male KIAA1363-KO mice were treated with JW576 or a PEG vehicle by intraperitoneal injection. After the indicated amount of time, mice were anesthetized with isoflurane and killed by decapitation. Tissues were removed, flash frozen in liquid N2 and stored at −80° C. prior to processing for ABPP gel analysis as indicated above. Animal experiments were conducted in accordance with the guidelines of the institutional Animal Care and Use Committee of The Scripps Research Institute.

KIAA1363 [3] = target: T1, KIAA1363; assay: Gel-based competitive ABPP of living PC3 cells, in situ treatment; type: cell-based; set-up: PC3 cancer cells, which have high endogenous KIAA1363 levels; endogenous in cells; host or cells: PC3
Procedure: Inhibitors were dissolved in DMSO and diluted into media or buffer prior to cell or proteome treatment, respectively. For in vitro treatment, final DMSO concentration was 4%. For in situ treatments of cells for ABPP, lipid measurements, migration, cell-survival, and invasion assays, 2×10^6 cells were seeded in 6 cm dishes (˜100% confluency) 24 h prior to inhibitor pre-treatment (in DMSO at 0.1% final concentration) in serum-free media (3 mL) for the designated time before harvesting cells for ABPP or lipid measurements or before the initiation of migration, cell-survival, and invasion assays.
For ABPP experiments, cell lysate and tissue proteomes were treated with 1 μM FP-rhodamine for 30 min at room temperature (50 μL total reaction volume) as described previously (Nomura et al., 2010). Reactions were quenched with one volume of standard 4×SDS/PAGE loading buffer (reducing), separated by SDS/PAGE (10% acrylamide), and visualized in-gel with a Hitachi FMBio IIe flatbed fluorescence scanner (MiraiBio). Inhibitors were preincubated prior (30 min or 4 h at 37° C. in vitro or in situ, respectively) to the addition of FP-rhodamine.
JW576 was dissolved in DMSO and diluted into media or buffer prior to cell or proteome treatment, respectively. For in vitro treatment, final DMSO concentration was 4%. For in situ treatments of cells for ABPP, 2×10^6 cells were seeded in 6 cm dishes (100% confluency) 24 hr prior to JW576 pretreatment with or without JW480 (in DMSO at 0.1% final concentration) in serum-free media (3 ml) for the designated time before harvesting cells for ABPP.
as §1

KIAA1363 [4] = target: T1, KIAA1363; assay: 2-acetyl MAGE hydrolytic activity assay in cancer cells treated in situ; type: cell-based; set-up: PC3 cancer cells, which have high endogenous KIAA1363 levels; endogenous in cells; host or cells: PC3 (2-acetyl MAGE assay also DU145 and SKOV3)
Procedure: Cells were pretreated with KIAA1363 inhibitors in situ (for 4 hr in serum-free F-12K media before harvesting cells by scraping) or in vitro (for 30 min at 37° C. in PBS) before addition of 2-acetyl MAGE (100 μM) to cell lysates at room temperature for 30 min in a volume of 200 μL. Reactions were quenched with 600 μL 2:1 chloroform:methanol and 10 nmol of C12:0 MAGE internal standard was added. The organic layer was extracted and 30 μL injected into an Agilent 1100-MSD LC-MS. LC-MS settings were as previously described (Chiang et al., 2006). Product levels (C16:0 MAGE) were quantified in relation to the internal standard. Specific activity was determined during the linear phase of enzymatic reactions (i.e., less than 20% substrate utilized).
Cell lysates (20 μg) in Tris buffer were then incubated with lipid (100 mM, e.g., 2-acetyl MAGE for KIAA1363 activity) at room temperature for 30 min in a volume of 200 ml. Reactions were quenched with 600 ml 2:1 chloroform:methanol and 10 nmol of C12:0 MAGE internal standard was added. […] Product levels (C16:0 MAGE for KIAA1363 activity) were quantified in relation to internal standard levels and standard curves generated between varying lipid concentration versus constant internal standard levels. Specific activity was determined during the linear phase of enzymatic reactions (i.e., less than 20% substrate utilized)

| Compound | IC50 for inhibition of FP-rhodamine labeling of KIAA1363 (KIAA1363 [1]) | Labeling of KIAA1363 in heart (KIAA1363 [2]; C57BI/6J mice, 5-40 mg/kg, i.p., 4 hr) | Time to near-maximal in vivo labeling signals (KIAA1363 [2]; JW576 10 mg/kg, post-dosing) | KIAA1363 activity in heart by competitive ABPP with FP-Rh (KIAA1363 [2]; WT mice, JW576 10 mg/kg, 1 hr) | Selectivity for KIAA1363 in vivo (heart proteome) (KIAA1363 [2]; additional 70 kDa protein, likely ES1) | IC50 (KIAA1363 [3]) | Time to near-complete target modification (KIAA1363 [3]; JW576 1 μM, living PC3 cells) | Concentration at which other JW576-protein adducts were observed (trace levels) (KIAA1363 [3]; PC3 cells in situ, BODIPY fluorescence scan) | IC50 (KIAA1363 [4]) |
| --- | --- | --- | --- | --- | --- | --- | --- | --- | --- |
| CC(C)c1ccccc1OC(=O)NCCOc1ccc2c(C(F)(F)F)cc(=O)oc2c1 [JW551, 2-isopropylphenyl (2-((2-oxo-4-(trifluoromethyl)-2H-chromen-7-yl)oxy)ethyl)carbamate] | low micromolar |  |  |  |  |  |  |  |  |
| CC1=CC(C)=[N+]2C1=Cc1ccc(CCC(=O)NCCNC(=O)Oc3ccccc3C(C)C)n1[B-]2(F)F [JW576, 5,5-difluoro-7-(3-((2-(((2-isopropylphenoxy)carbonyl)amino)ethyl)amino)-3-oxopropyl)-1,3-dimethyl-5H-dipyrrolo[1,2-c:2′,1′-f][1,3,2]diazaborinin-4-ium-5-uide] |  | significant labeling | ≤ 30 min | substantial reductions | only a single, faint additional probe target | 340 ± 150 nM | within an hour | ≥ 5 µM | 150 to 170 nM |

— patent publication US9249128B2 (priority 2010, dated 2016)
